Tests used:
Type in all cases: cell-based, mice
naïve CD4SP T cells [1] = experiment: Cell proliferation of naïve CD4SP T cells under anti-CD3/anti-CD28 stimulation (OD 450 nm); conditions: for effect of inhibiting cellular proliferation by cGAMP: FIG. 7A
Method: Wild type mice and STING-deficient mice were used. As acquired immune lymphocytes, T cells (in particular naïve CD4SP T cells) were used. Naïve CD4SP T cells were obtained as a CD4^+ CD25^− CD62L^+ fraction from murine spleen by sorting using FACSAria. As a STING ligand, cyclic [G(2′,5′)pA(3′,5′)p] (hereinafter, simply referred to as “cGAMP”) was used. cGAMP (manufactured by Invitrogen, Cat. No.: tlrl-nacga23-1) was used at a working concentration of 3 μg/mL, 10 μg/mL, or 30 μg/mL. The obtained T cells were stimulated with an anti-CD3 antibody (10 μg/mL) and an anti-CD28 antibody (10 μg/mL) in the presence or absence of cGAMP. […] The cells were treated for 48 hours and then the cell proliferation was measured by the optical density (OD 450 nm). The result was as illustrated in FIG. 1.
Moreover, the involvement of TBK1 in the function to inhibit cell proliferation by cGAMP was examined using TBK1 heterozygous mice and TBK1 knockout mice. The result was as illustrated in FIG. 6B.
(§1) Next, involvement of IRF3 and IRF7 in the effect of inhibiting cellular proliferation and the effect of increasing production of INF-α through STING were examined. Specifically, T cells from IRF3-deficient mice or IRF3/IRF7 double deficient mice (see Immunity, Vol. 13, 539-548, 2000; Nature, Vol. 434, 772-777, 2005) were stimulated by anti-CD3/CD28 antibodies in the presence or absence of cGAMP. 48 hours later, the proliferation of the cells and the production of INF-α were examined as described above. The results were as illustrated in FIGS. 7A and 7B.

naïve CD4SP T cells [2] = experiment: Cell survival rate of naïve CD4SP T cells (apoptosis inducing effect); conditions: cGAMP 10 or 30 μg/mL, 15 hours, FIG. 2
[3] = system: cell cycle-related factors in naïve CD4SP T cells; experiment: Gene expression of cell cycle-related factors by quantitative PCR; conditions: anti-CD3/CD28 antibodies 24 hours, FIG. 3
Method: As described in (1) above, naïve CD4SP T cells were stimulated with anti-CD3/CD28 antibodies for 24 hours in the presence or absence of cGAMP. Subsequently, the gene expression of cell cycle-related factors was examined by quantitative PCR according to a conventional method. The result was as illustrated in FIG. 3.

[4] = system: mTOR Complex 1 (mTORC1) signaling; experiment: Phosphorylated level of signal molecules by western blotting; conditions: anti-CD3/CD28 antibodies 24 hours, FIG. 4
Method: As a signal molecule that is involved in the expression of cell proliferation-related genes, the activation level of mTOR Complex 1 (mTORC1) signaling was analyzed. Specifically, as described in (1) above, naïve CD4SP T cells were stimulated with anti-CD3/CD28 antibodies for 24 hours in the presence or absence of cGAMP. Subsequently, the phosphorylated level of indicated factors was evaluated with antibodies specific to the phosphorylated form by western blotting. As primary antibodies, the antibodies set forth in the following were used. The following primary antibodies were manufactured by Cell Signaling Technology, Inc. and the catalog numbers are indicated in the parentheses.
Anti-phospho-IRF3 (#4947)
Anti-phospho-STAT5 (#9351)
Anti-phospho-Jak3 (#5031)
Anti-phospho-STING (#13647)
As a second antibody, Goat anti-Rabbit IgG (H+L) Secondary Antibody, HRP from Thermo Fisher Scientific Inc. was used. Phosphorylated proteins were detected according to a manufacturer manual. The result was as illustrated in FIG. 4.

[5] = system: lipid synthesis genes that are induced by the activation of mTORC1; experiment: Expression levels of lipid synthesis genes by quantitative PCR; conditions: FIG. 5
Method: Moreover, the expression levels of lipid synthesis genes that are induced by the activation of mTORC1 were analyzed by quantitative PCR. The result was as illustrated in FIG. 5.

type I interferon INF-α = experiment: Production of type I interferon INF-α in naïve CD4SP T cells by ELISA; conditions: for effect of increasing production of INF-α by cGAMP: 48 hours, FIG. 7B
Method: 1×10^5 naïve CD4SP T cells were stimulated for 48 hours on a plate on which an anti-CD3 antibody (10 μg/mL) and an anti-CD28 antibody (10 μg/mL) were immobilized. The cell supernatant was collected and the production of the type I interferon INF-α was examined by ELISA using an anti-INF-α antibody. In innate immune cells, type I interferons are produced by the activation of TBK1 and its downstream IRF3 and IRF7. Therefore, T cells from TBK1 heteromice (Tbk1+/−) and TBK1-deficient mice (Tbk1−/−) were used (see, J Exp Med, Vol. 199, 1641-1650, 2004). The result was as illustrated in FIG. 6A.
as §1

## Nc1nc2c(ncn2[C@@H]2O[C@@H]3COP(=O)(O)O[C@H]4[C@@H](O)[C@H](n5cnc6c(N)ncnc65)O[C@@H]4COP(=O)(O)O[C@@H]2[C@@H]3O)c(=O)[nH]1 [cGAMP, cyclic [G(2′,5′)pA(3′,5′)p]]
naïve CD4SP T cells [1]; IRF3/IRF7 double deficient mice, 48 hours
  effect of inhibiting cellular proliferation by cGAMP: largely decreased
naïve CD4SP T cells [1]; IRF3 deficient mouse, 48 hours
  effect of inhibiting cellular proliferation by cGAMP: partially decreased
naïve CD4SP T cells [1]; STING-deficient mice (STING−/−), anti-CD3/anti-CD28 stimulation, 48 hours, FIG. 1
  effect on the number of naïve CD4SP T cells: limited
naïve CD4SP T cells [1]; TBK1 knockout versus TBK1 heterozygous mice, FIG. 6B
  effect of Tbk1 knockout on inhibition of cell proliferation by cGAMP: almost no effect
naïve CD4SP T cells [1]; cGAMP versus 10 μM etoposide, 48 hours, FIG. 1
  degree of effect on the number of cells compared with etoposide: acted in a degree similar to etoposide
naïve CD4SP T cells [1]; wild type mice (STING+/+), cGAMP 3, 10 or 30 μg/mL, anti-CD3/anti-CD28 stimulation, 48 hours, FIG. 1
  number of naïve CD4SP T cells (cell proliferation, OD 450 nm): decreased in a concentration-dependent manner
naïve CD4SP T cells [2]; etoposide 10 μM
  apoptosis-inducing effect: any prominent apoptosis-inducing effect was not found
naïve CD4SP T cells [2]
  cell survival rate: decreased to some extent in a concentration-dependent manner
[3]
  expression of Cdk1: inhibited
  expression of Cdk4: inhibited
  expression of cyclin A2: inhibited
  expression of cyclin B1: inhibited
  expression of cyclin D3: inhibited
  expression of p21: increased
[4]
  level of phosphorylated 4E-BP1: decreased
  level of phosphorylated S6K: decreased
[5]
  expression levels of lipid synthesis-related genes: decreased
Type I interferon INF-α; IRF3/IRF7 double deficient mice
  effect of increasing production of INF-α by cGAMP: almost completely disappeared
Type I interferon INF-α; IRF3 deficient mice
  effect of increasing production of INF-α by cGAMP: almost completely disappeared
Type I interferon INF-α; TBK1-deficient mice (Tbk1−/−) versus Tbk1+/−, FIG. 6A
  increase in production of INF-α by cGAMP: decreased by TBK1 knockout
Type I interferon INF-α; anti-CD3/anti-CD28 stimulation 48 hours, ELISA of supernatant, FIG. 6A
  INF-α production in T cells: prominent increase

## COc1cc([C@@H]2c3cc4c(cc3[C@@H](O[C@@H]3O[C@@H]5CO[C@@H](C)O[C@H]5[C@H](O)[C@H]3O)[C@H]3COC(=O)[C@H]23)OCO4)cc(OC)c1O [etoposide]
naïve CD4SP T cells [1]; etoposide 10 μM, STING+/+ and STING−/−, 48 hours, FIG. 1
  number of cells (cell proliferation, OD 450 nm): decreased independent of the STING genotype
